These results are taken from patent US20090285773A1, “Hepatitis C Virus Inhibitors” (Bristol-Myers Squibb Company, priority 2008, published 2009).

Structures are written as SMILES. Read-outs that look alike come from different tables or passages of the source.

For assay [1], the system named is human pancreatic chymotrypsin. Briefly: Specificity assay, chymotrypsin. To be noted: read-out: Chymotrypsin activity in the specificity assays. It is filed as biochemical. Here is the method: (§1) The specificities of compounds of the present disclosure were determined against a variety of serine proteases: human neutrophil elastase (HNE), porcine pancreatic elastase (PPE) and human pancreatic chymotrypsin and one cysteine protease: human liver cathepsin B. In all cases a 96-well plate format protocol using a fluorometric Amino-Methyl-Coumarin (AMC) substrate specific for each enzyme was used as described previously (PCT Patent Application No. WO 00/09543) with some modifications to the serine protease assays. All enzymes were purchased from Sigma, EMDbiosciences while the substrates were from Bachem, Sigma and EMDbiosciences.
(§2) Compound concentrations varied from 100 to 0.4 μM depending on their potency. The enzyme assays were each initiated by addition of substrate to enzyme-inhibitor pre-incubated for 10 min at room temperature and hydrolysis to 15% conversion as measured on cytofluor. […]
(§3) The percentage of inhibition was calculated using the formula: […]

For assay [2], the system named is HCV replicon (strain 1b) in HUH-7 cells. Kind of assay: HCV replicon FRET assay. Particulars: Hepatitis C virus. It is filed as cell-based. The source says:
An HCV replicon whole cell system was established as described by Lohmann V, Korner F, Koch J, Herian U, Theilmann L, Bartenschlager R., Science 285(5424): 110-3 (1999). This system enabled us to evaluate the effects of our HCV Protease compounds on HCV RNA replication. Briefly, using the HCV strain 1b sequence described in the Lohmann paper (Assession number:AJ238799), an HCV cDNA was synthesized by Operon Technologies, Inc. (Alameda, Calif.), and the full-length replicon was then assembled in plasmid pGem9zf(+) (Promega, Madison, Wis.) using standard molecular biology techniques. The replicon consists of (i) the HCV 5′ UTR fused to the first 12 amino acids of the capsid protein, (ii) the neomycin phosphotransferase gene (neo), (iii) the IRES from encephalomyocarditis virus (EMCV), and (iv) HCV NS3 to NS5B genes and the HCV 3′ UTR. Plasmid DNAs were linearized with ScaI and RNA transcripts were synthesized in vitro using the T7 MegaScript transcription kit (Ambion, Austin, Tex.) according to manufacturer's directions. In vitro transcripts of the cDNA were transfected into the human hepatoma cell line, HUH-7. […] Resulting cell lines were characterized for positive and negative strand RNA production and protein production over time.
The HCV replicon FRET assay was developed to monitor the inhibitory effects of compounds described in the disclosure on HCV viral replication. HUH-7 cells, constitutively expressing the HCV replicon, were grown in Dulbecco's Modified Eagle Media (DMEM) (Gibco-BRL) containing 10% Fetal calf serum (FCS) (Sigma) and 1 mg/ml G418 (Gibco-BRL). Cells were seeded the night before (1.5×10^4 cells/well) in 96-well tissue-culture sterile plates. Compound and no compound controls were prepared in DMEM containing 4% FCS, 1:100 Penicillin/Streptomysin (Gibco-BRL), 1:100 L-glutamine and 5% DMSO in the dilution plate (0.5% DMSO final concentration in the assay). Compound/DMSO mixes were added to the cells and incubated for 4 days at 37° C. After 4 days, cells were first assessed for cytotoxicity using alamar Blue (Trek Diagnotstic Systems) for a CC50 reading. The toxicity of compound (CC50) was determined by adding 1/10th volume of alamar Blue to the media incubating the cells. After 4 h, the fluorescence signal from each well was read, with an excitation wavelength at 530 nm and an emission wavelength of 580 nm, using the Cytofluor Series 4000 (Perspective Biosystems). Plates were then rinsed thoroughly with Phosphate-Buffered Saline (PBS) (3 times 150 μl).
(In general: A replicon is a self-replicating genome or part of one, used to study replication in cells.)

Assay [3] has as its target porcine pancreatic elastase (PPE) (Sus scrofa, UniProt P00772). Briefly: Specificity assay, porcine pancreatic elastase. It is filed as biochemical. To be noted: read-out: PPE activity in the specificity assays. Here is the method: as §1, §2, §3

Sequence of porcine pancreatic elastase (PPE) (P00772 27-266): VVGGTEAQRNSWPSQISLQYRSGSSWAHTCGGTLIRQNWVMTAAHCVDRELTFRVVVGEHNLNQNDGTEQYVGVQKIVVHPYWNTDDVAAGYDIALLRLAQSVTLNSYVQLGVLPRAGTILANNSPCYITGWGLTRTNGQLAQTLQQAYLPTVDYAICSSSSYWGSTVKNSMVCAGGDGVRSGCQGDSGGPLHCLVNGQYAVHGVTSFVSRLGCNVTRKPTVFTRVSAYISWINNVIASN

Turning to `COc1ccc2c(O[C@@H]3C[C@H]4C(=O)N[C@]5(C(=O)NS(=O)(=O)C6CC6)C[C@H]5/C=C\CCCCC[C@H](Nc5ccc(OC)nc5)C(=O)N4C3)nccc2c1` (single isomer, unassigned) [Compound 1], the IC50 in assay [1] is 25 µM; in assay [3], above 25 µM. For the same compound, the EC50 in assay [2] (96 h, HUH-7 replicon cells, 4 days, read-out: EC50 value in the replicon FRET assay) amounted to 0.021 µM; in assay [2] (Huh-7, Table 2, replicon assay variant and unit inferred, read-out: EC50), 0.0205 µM.

What is called EC50 is the concentration at which the effect is half-maximal.
